The source of these data is the NIST ThermoML archive (doi:10.1016/j.tca.2008.10.020).

± gives the expanded uncertainty stated by the source.

For data set [1] the following is noted: Crystal 2; DTA.
Data set [2] in a line: Molar enthalpy of transition or fusion. Conditions: Crystal 2; DSC.

Consider `[Cl][Pt][Cl]` [platinous chloride], for which the Triple point temperature in data set [1] was found to be 660 ± 10 K. For the same compound, the “Molar enthalpy of transition or fusion” value in data set [2] was 0.0399 ± 0.0227 kcal/mol.
